Assay [1] has as its system fibers presumed to be nociceptors. Also on record: species or system Swiss Webster mice.
Assay [2] addresses T1, TRPV1 receptor (Mus musculus, UniProt Q704Y3). Kind of assay: Capsaicin-induced Ca2+ rise in DRG neuronal primary cultures (Fluo-4 Ca2+ imaging). The class given is cell-based. More on the design: we used Ca^2+ imaging of DRG neuronal primary culture for these experiments; endogenous in cells; host or cells: primary dorsal root ganglion neurons (thoracolumbar levels).
Description: The spinal column was removed from the body, transferred to a beaker containing ice-cold Krebs, and bisected longitudinally. DRG were exposed and collected from the thoracolumbar levels. Whole DRG were washed twice with sterile Leibovitz's L-15 medium (GIBCO, Gaithersburg, Md.), and incubated for 40 min in collagenase type 1 at 1 mg/ml (Sigma-Aldrich; Oakville, ON, Canada) and 0.5 ml trypsin (0.25%, GIBCO) in 20 ml L-15 at 37° C. After further addition of 5 ml L-15 containing 10% fetal bovine serum (FBS, GIBCO), the ganglia were centrifuged for 5 min at 1,000 rpm, then washed twice with growth medium (L-15, containing 10% FBS, 1% Penicillin/Streptomycin/Glutamine, 1% HEPES and 1% Na Pyruvate). […]
DRG neurons were placed within a plexiglass recording dish and loaded with the Ca^2+ indicator Fluo-4-AM (8 μM) diluted in Krebs with 0.1% pluronic acid (in DMSO) at 37° C. for 60 min. […] Fluorescence intensity in individual neurons was recorded by Simple PCI 6 software (Compix Inc, Imaging systems, Sewickley, Pa.). […] Images, recorded at 0.9 frame/s, were stored on a local hard drive. Image files were analyzed off-line using Image J software (NIH, USA, http://imagej.nih.gov/ij). The increase in Fluo-4 Ca^2+ when applying capsaicin was measured as the ratio (F/F0) fluorescence intensity after capsaicin (F) divided by the intensity before capsaicin (F0). […]
Assay [3] concerns the target T1, TRPV1 receptor. More on the design: Segments of distal jejunum (˜2.5 cm) with attached mesenteric tissue were removed from freshly killed animals; from tissue; host or cells: mouse distal jejunum with attached mesenteric nerve bundle (ex vivo); species or system Swiss Webster mice.

Values joined by “and” are separate entries in the source; they are usually repeats but may differ in a detail not shown here. Identical values can stand only once.

T1 sequence (Q704Y3 whole entry): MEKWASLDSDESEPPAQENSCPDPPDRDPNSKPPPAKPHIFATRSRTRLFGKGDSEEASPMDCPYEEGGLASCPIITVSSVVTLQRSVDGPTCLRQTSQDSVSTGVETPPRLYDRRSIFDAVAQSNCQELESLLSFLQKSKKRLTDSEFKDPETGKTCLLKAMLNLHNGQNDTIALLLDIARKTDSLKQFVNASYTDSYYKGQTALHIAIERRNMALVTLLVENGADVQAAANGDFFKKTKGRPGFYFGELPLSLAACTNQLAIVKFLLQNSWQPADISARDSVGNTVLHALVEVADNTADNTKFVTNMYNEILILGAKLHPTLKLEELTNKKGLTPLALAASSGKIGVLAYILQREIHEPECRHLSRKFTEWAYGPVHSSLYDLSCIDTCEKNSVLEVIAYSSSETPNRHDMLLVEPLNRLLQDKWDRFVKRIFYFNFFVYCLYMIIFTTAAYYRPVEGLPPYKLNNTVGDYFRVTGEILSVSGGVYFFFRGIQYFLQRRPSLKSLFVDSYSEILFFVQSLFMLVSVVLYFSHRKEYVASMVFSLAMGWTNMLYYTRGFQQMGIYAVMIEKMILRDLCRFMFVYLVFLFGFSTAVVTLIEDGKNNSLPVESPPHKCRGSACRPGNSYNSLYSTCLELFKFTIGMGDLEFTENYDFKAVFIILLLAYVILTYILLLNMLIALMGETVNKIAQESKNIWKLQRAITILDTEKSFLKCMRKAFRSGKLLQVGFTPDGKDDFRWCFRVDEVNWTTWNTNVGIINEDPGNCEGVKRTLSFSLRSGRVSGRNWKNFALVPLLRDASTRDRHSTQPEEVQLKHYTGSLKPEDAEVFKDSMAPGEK

With `COc1cc(CNC(=O)CCCCCC(C)C)c(I)cc1O` [6-Iodonordihydrocapsaicin], in assay [1], the “single-unit response to distension” value is reported as 2.23±0.50 Hz.
For `COc1cc(CNC(=O)CCCC/C=C/C(C)C)ccc1O` [capsaicin], the “fluorescence rise ratio F/F0 evoked by capsaicin” value at TRPV1 receptor [2] (1 μM capsaicin alone (control group, N=14)) worked out at 2.36±0.31. Moreover, the “time to increase in intracellular Ca2+ after puffing capsaicin” value at TRPV1 receptor [2] (1 μM capsaicin onto DRG neurons) is on record as roughly 30 s. In addition, the “capsaicin-evoked excitation with intramural synaptic blockage” value at TRPV1 receptor [3] (1 μM capsaicin in presence of 500 nM each ω-Cg-GVIA and ω-Cg-MVIIC, n=12, P=0.947) is 219.1±72.6%. The “capsaicin-evoked excitation (firing frequency increase)” value at TRPV1 receptor [3] (1 μM capsaicin serosal, alone (control group), n=17) was 187.5±42.9% and 187.5±43%. For the same compound, the “maximal response (Top) obtained with capsaicin” value at TRPV1 receptor [3] (capsaicin alone, increase in firing frequency above baseline) turned out to be 238±27%. Besides, the “onset latency of capsaicin-induced firing rate increase” value at TRPV1 receptor [3] (capsaicin applied to serosal compartment) is roughly 60 s. For the same compound, the Emax on TRPV1 receptor [3] (read-out: maximal response (Top) obtained with capsaicin, capsaicin alone, increase in firing frequency above baseline) came to 238 ± 27.5%. Also, the EC50 on TRPV1 receptor [3] (serosal capsaicin 100 nM-100 μM, vagotomized mice, three-parameter logistic fit, read-out: EC50 for capsaicin alone (increase in firing frequency)) came out at 200 nM.

One may read the EC50 as the concentration at which the effect is half-maximal.
